{
  "source": "patent US20240238314A1",
  "about": "“TREATMENT OF ESSENTIAL TREMOR” (Sage Therapeutics, Inc., priority 2021, published 2024)",
  "type_in_all_cases": "in vivo, human",
  "key": {"[1]": {"tested_on": "individuals with essential tremor", "assay": "Phase 2 study, Compound 1 60 mg once daily for 28 days: TETRAS ADL total score"}, "[2]": {"tested_on": "individuals with essential tremor", "assay": "Phase 2 study, Compound 1 60 mg once daily for 28 days: TETRAS performance subscale total score", "conditions": "Full Analysis Set", "procedure": "As used herein, “The Essential Tremor Rating Assessment Scale (TETRAS) performance subscale total score” refers to an assessment scale for essential tremor developed by The Tremor Research Group (Elble, R. J., J. Neurol. Neuromedicine 1(4):34-38 (2016); Elble, R. J. et. al., Mov. Disord. 27(12); 1567-1569 (2012)). The TETRAS […] performance subscale includes 9 metrics or characteristics, wherein each metric or characteristic is scored 0 to 4. Some metrics or characteristics are performed on both right and left limbs and/or include multiple subitems. Scores for each of the 9 characteristics are then added to give a total score of no greater than 64. The 9 metrics or characteristics include:\n(§1) Participants were 18 to 80 years of age, inclusive, diagnosed of ET of at least 3 years duration with scores of at least 1.5 for each of the six items that comprised the combined total upper limb TETRAS (total performance subscale part 4) with the total score for the dominant upper limb (the sum of the 3 items for either the right or left upper limb, whichever is dominant) being at least 5.5, at both Screening and predose on Day 1.\n(§2) Participants were randomized to receive Compound 1 60 mg or placebo once daily in the morning on a 1:1 basis. If participants reported a TEAE considered by investigator to be related to Compound 1 and not tolerable, investigator might reduce the dose of Compound 1 from 60 mg in 15 mg decrements (i.e., 60 mg, to 45 mg, to 30 mg), as medically appropriate. If intolerable TEAEs persist at the 30 mg dose, Compound 1 was permanently stopped.\n(§3) This study included a Screening Period of up to 28 days, a 29-day treatment period consisting of 28 days of dosing with the end of treatment visit intended to be on Day 29 at trough, and a 14-day follow-up period relative to final dose. Study patients were not taking other medications for essential tremor during the 28-day treatment period."}, "[3]": {"tested_on": "individuals with essential tremor", "assay": "Phase 2 study, Compound 1 60 mg once daily for 28 days: TETRAS performance subscale part 4/6/7/8 total score", "conditions": "Full Analysis Set", "procedure": "4) Upper limb tremor: Tremor is assessed during three maneuvers: forward horizontal reach posture, lateral “wing beating” posture and finger-nose-finger testing. Each upper limb is assessed and scored individually. The forward horizontal reach posture is held for 5 seconds. The lateral wing beating posture is held for 20 seconds. The finger-nose-finger movement is executed three times. Amplitude assessment should be estimated using the maximally displaced point of the hand at the point of greatest displacement along any single plane. For example, the amplitude of a pure supination-pronation tremor, pivoting around the wrist would be assessed at either the thumb or fifth digit.\nThe lines of the spiral should be approximately 1.3 cm (0.5 inch) apart. Then ask the subject to copy the spiral. Test and score each hand separately. Use a ballpoint pen. The pen should be held such that no part of the limb touches the table. Secure the paper on the table in a location that is suitable for the patient's style of drawing. Score the tremor in the spiral, not the movement of the limb. Each limb is assessed and scored individually. 0=normal. 1=slight: tremor barely visible. 2=mild: obvious tremor. 3=moderate: portions of figure not recognizable. 4=severe: figure not recognizable.\n7) Handwriting: Have patient write the standard sentence “This is a sample of my best handwriting” using the dominant hand only. Patients must write cursively (i.e., no printing). They cannot hold or stabilize their hand with the other hand. Use a ballpoint pen. Secure the paper on the table in a location that is suitable for the patient's style of writing. Score the tremor in the writing, not the movement of the limb. 0=normal. 1=slight: untidy due to tremor that is barely visible. 2=mild: legible, but with considerable tremor. 3=moderate: some words illegible. 4=severe: completely illegible.\n8) Dot approximation task: The examiner makes a dot or X and instructs the subject to hold the tip of the pen “as close as possible to the dot (or center of an X) without touching it, (ideally approximately 1 mm) for 10 seconds.” Each hand is scored separately. 0=no tremor. 1=tremor is barely visible. 1.5=tremor is visible, but less than 1 cm. 2=tremor is 1-<3 cm amplitude. 2.5=tremor is 3-<5 cm amplitude. 3=tremor is 5-<10 cm amplitude. 3.5=tremor is 10-<20 cm amplitude. 4=tremor is >20 cm amplitude.\nas §1, §2, §3\nSimilarly, an MMRM was be used for the analysis of the following variables: changes from baseline in TETRAS performance subscale part 4, 6, 7, and 8 combined score, and TETRAS ADL score. For each model, the comparison of interest was between Compound 1 tablets and matching placebo at the 15-day time point. […]"}},
  "data": [
    {"smiles": "COC[C@@]1(O)CC[C@H]2[C@@H](CC[C@@H]3[C@@H]2CC[C@]2(C)[C@@H](C(=O)Cn4nnc(C)n4)CC[C@@H]32)C1", "note": "[Compound 1]", "values": [
      {"measurement": "LSMean Difference (CI) vs placebo in CFB in TETRAS ADL total score", "setting": "[1]; Baseline TETRAS ADL ≥ 28, Day 29", "result": "−1.47"},
      {"measurement": "LSMean difference vs placebo in change from baseline in TETRAS ADL total score", "setting": "[1]; Full Analysis Set, Day 8", "result": "−2.80"},
      {"measurement": "Change from baseline in TETRAS ADL subscale total score compared with placebo, in words", "setting": "[1]; Full Analysis Set, Day 29", "result": "numerically superior to placebo but failed to reach statistical significance"},
      {"measurement": "LSMean difference vs placebo in change from baseline in TETRAS ADL total score", "setting": "[1]; Full Analysis Set, Day 29", "result": "−1.37 (−3.81, 1.08)"},
      {"measurement": "LSMean difference vs placebo in change from baseline in TETRAS performance subscale total score", "setting": "[2]; Day 8", "result": "−1.26"},
      {"measurement": "Model-based LSMean (SE) change from baseline in TETRAS performance subscale total score", "setting": "[2]; Day 8", "result": "−3.55 (0.780)"},
      {"measurement": "LSMean difference vs placebo in change from baseline in TETRAS performance subscale total score", "setting": "[2]; Day 15, 5 hr postdose", "result": "−1.52"},
      {"measurement": "Model-based LSMean (SE) change from baseline in TETRAS performance subscale total score", "setting": "[2]; Day 15, 5 hr postdose", "result": "−5.90 (1.015)"},
      {"measurement": "LSMean difference vs placebo in change from baseline in TETRAS performance subscale total score", "setting": "[2]; Day 15, 8 hr postdose", "result": 0.01},
      {"measurement": "Model-based LSMean (SE) change from baseline in TETRAS performance subscale total score", "setting": "[2]; Day 15, 8 hr postdose", "result": "−4.61 (0.954)"},
      {"measurement": "LSMean difference vs placebo in change from baseline in TETRAS performance subscale total score", "setting": "[2]; Day 15, predose", "result": "−0.91"},
      {"measurement": "Model-based LSMean (SE) change from baseline in TETRAS performance subscale total score", "setting": "[2]; Day 15, predose", "result": "−3.46 (0.878)"},
      {"measurement": "LSMean difference vs placebo in change from baseline in TETRAS performance subscale total score", "setting": "[2]; Day 22", "result": "−0.24"},
      {"measurement": "Model-based LSMean (SE) change from baseline in TETRAS performance subscale total score", "setting": "[2]; Day 22", "result": "−3.16 (0.914)"},
      {"measurement": "LSMean difference vs placebo in change from baseline in TETRAS performance subscale total score", "setting": "[2]; Day 29", "result": "−0.32 (−2.78, 2.14)"},
      {"measurement": "Model-based LSMean (SE) change from baseline in TETRAS performance subscale total score", "setting": "[2]; Day 29", "result": "−3.22 (0.922)"},
      {"measurement": "LSMean difference vs placebo in change from baseline in TETRAS performance subscale total score", "setting": "[2]; Day 29, listed as Cmpd 1", "result": "−0.32"},
      {"measurement": "LSMean difference vs placebo in change from baseline in TETRAS performance subscale total score", "setting": "[2]; Day 42", "result": 2.28},
      {"measurement": "Model-based LSMean (SE) change from baseline in TETRAS performance subscale total score", "setting": "[2]; Day 42", "result": "−1.59 (0.820)"},
      {"measurement": "LSMean difference vs placebo in change from baseline in TETRAS performance subscale part 4/6/7/8 total score", "setting": "[3]; Day 8", "result": "−1.22"},
      {"measurement": "Model-based LSMean (SE) change from baseline in TETRAS performance subscale part 4/6/7/8 total score", "setting": "[3]; Day 8", "result": "−2.84 (0.579)"},
      {"measurement": "LSMean difference vs placebo in change from baseline in TETRAS performance subscale part 4/6/7/8 total score", "setting": "[3]; Day 15, 5 hr postdose", "result": "−1.03"},
      {"measurement": "Model-based LSMean (SE) change from baseline in TETRAS performance subscale part 4/6/7/8 total score", "setting": "[3]; Day 15, 5 hr postdose", "result": "−4.59 (0.840)"},
      {"measurement": "LSMean difference vs placebo in change from baseline in TETRAS performance subscale part 4/6/7/8 total score", "setting": "[3]; Day 15, 8 hr postdose", "result": "−0.23"},
      {"measurement": "Model-based LSMean (SE) change from baseline in TETRAS performance subscale part 4/6/7/8 total score", "setting": "[3]; Day 15, 8 hr postdose", "result": "−3.75 (0.755)"},
      {"measurement": "LSMean difference vs placebo in change from baseline in TETRAS performance subscale part 4/6/7/8 total score", "setting": "[3]; Day 15, predose", "result": "−0.55"},
      {"measurement": "Model-based LSMean (SE) change from baseline in TETRAS performance subscale part 4/6/7/8 total score", "setting": "[3]; Day 15, predose", "result": "−2.63 (0.671)"},
      {"measurement": "LSMean difference vs placebo in change from baseline in TETRAS performance subscale part 4/6/7/8 total score", "setting": "[3]; Day 22", "result": "−0.77"},
      {"measurement": "Model-based LSMean (SE) change from baseline in TETRAS performance subscale part 4/6/7/8 total score", "setting": "[3]; Day 22", "result": "−2.93 (0.691)"},
      {"measurement": "LSMean difference vs placebo in change from baseline in TETRAS performance subscale part 4/6/7/8 total score", "setting": "[3]; Day 29", "result": "−0.59 (−2.45, 1.28)"},
      {"measurement": "Model-based LSMean (SE) change from baseline in TETRAS performance subscale part 4/6/7/8 total score", "setting": "[3]; Day 29", "result": "−2.81 (0.699)"},
      {"measurement": "LSMean difference vs placebo in change from baseline in TETRAS performance subscale part 4/6/7/8 total score", "setting": "[3]; Day 29, listed as Cmpd 1", "result": "−0.59"},
      {"measurement": "LSMean difference vs placebo in change from baseline in TETRAS performance subscale part 4/6/7/8 total score", "setting": "[3]; Day 42", "result": 1.96},
      {"measurement": "Model-based LSMean (SE) change from baseline in TETRAS performance subscale part 4/6/7/8 total score", "setting": "[3]; Day 42", "result": "−1.17 (0.673)"}
    ]}
  ]
}
